Experimental data taken from patent US7129080B2 (priority 2001, dated 2006).
Values after ≈ are worked out from the molar mass of the structure shown. Structures can show the parent of a compound that is named as a salt. Where two headings read alike, the source gives them in different places.

Tests used:
prion model [1] = assay: organism not typed; type: cell-based
prion model [2] = type: biochemical
prion model [3] = type: cell-based; details: ethylene oxide 600 mg/L, 18 mins, initial count 8.5

SMILES	concentration showing at least some effect on growth of the prion model (MIC test) (prion model [1])	activity at inhibiting the growth of the prion model in culture media (prion model [1])	also measured
Cl [HCl]	~0.1 N	–	–
NC[C@@H]1O[C@H](O[C@H]2[C@@H](O)[C@H](O[C@@H]3[C@@H](O)[C@H](N)C[C@H](N)[C@H]3O[C@H]3O[C@H](CN)[C@@H](O)[C@H](O)[C@H]3N)O[C@@H]2CO)[C@H](N)[C@@H](O)[C@@H]1O.O=S(=O)(O)O [neomycin sulphate]	~125 mg/L	measurable activity	–
CC(=O)OO [Peracetic acid]	–	–	MIC (prion model [1]; read-out: concentration showing at least some effect on growth of the prion model (MIC test)): ~600 µg/mL (≈ 7.89 mM); breakdown of the protein (prion model [2]): break down the protein to a form which is inactive
[Na+].[OH-] [NaOH, sodium hydroxide]	~0.01 N	effective	–
C1CO1 [ethylene oxide]	–	–	Prion count in Logs (prion model [3]; 54° C., 40% RH): 4.7 Logs; Prion count in Logs (prion model [3]; 70° C., 100% RH): 5.0 Logs
[Mn+2] [Manganese]	~100 mg/L	measurable activity	–
O=[N+]([O-])[O-].[Ag+] [silver nitrate]	~30 mg/L	measurable activity	–
